Experimental data: patent US20200308141A1, “SOLID STATE FORMS OF NERATINIB AND SALTS THEREOF” (PLIVA HRVATSKA D.O.O., priority 2016, published 2020)

Experiments:
[1] = Solubility test according to European Pharmacopoeia 7.0, 5.11; assay type: physicochemical; details: for Solubility: Ph. Eur. descriptive term
Method: Solubility test was performed according to European Pharmacopoeia 7.0, page 637, 5.11.

[2] = Texture analysis (low-pressure compression, TA-XTplus Texture analyser); assay type: physicochemical; details: for Compressed density index, CDI: 200 mg sample, cyclic compression up to 20 steps, CDI below 15 is considered good flowability
Method: A simple and low sample consuming method for evaluation of the packing density of powders were obtained as compression profiles under low pressures using a die and a flat-faced punch fitted on a TA-XTplus Texture analyser (Stable Micro Systems Ltd., Godalming, UK). The small amount of 200 mg of sample was compressed in a steel mould (with the rate of displacement 0.03 mm/s). Also, a cyclic procedure (similar to tapping) was performed at maximal compressive displacement 0.5 mm, then retracting, relaxation for 15 s and then repeated compressive steps (altogether up to 20 steps).
Density at 0.2 MPa and CDI data of Neratinib maleate Form monohydrate and Neratinib maleate Form B6 (prepared according to example 12) are presented in Table 2.

Structure (SMILES): CCOc1cc2ncc(C#N)c(Nc3ccc(OCc4ccccn4)c(Cl)c3)c2cc1NC(=O)/C=C/CN(C)C [Neratinib base B6, (E)-N-{4-[3-Chloro-4-(2-pyridinylmethoxy)anilino]-3-cyano-7-ethoxy-6-quinolinyl}-4-(dimethylamino) -2-butenamide]
- Solubility compared with Neratinib maleate monohydrate ([1]; all tested conditions (pH 1.1, 4.5, 6.8), listed as Neratinib base form B6): good correlation
- Solubility ([1]; pH = 1.1): sparingly
- Solubility ([1]; pH = 4.5): slightly
- Solubility ([1]; pH = 6.8): very slightly
- Density at 0.2 MPa ([2]; 200 mg sample compressed in steel mould, 0.03 mm/s, listed as crystalline form B6 of Neratinib base): higher than that of the Neratinib maleate monohydrate
- Compressed density index, CDI ([2]; listed as Neratinib base Form B6): 10.89
- Compressed density index, CDI ([2]; listed as crystalline form B6 of Neratinib base): below 15
